Data on 2 compounds can be found in patent publication US6506928B1, “Dendrimeric fullerene derivatives, process for their preparation, and use as neuroprotectants” (Siemens Axiva GmbH & Co. KG, priority 1998, dated 2003).

The test system of one series is apoptotic neural death. Conditions: induced by serum withdrawal or exposure of Aβ1-42 protein; literature /12/; cited from earlier work.
Another series can be described thus: physchem. As to the method:
The dendrimer fullerene 1 of second generation [18-cascade:methano-C60-fullerene[2]:(2-aza-7-oxa-3,8-dioxooctylidyne):(2-aza-3-oxopentylidyne):propanoic acid] (cf. preparation example 1) is prepared (Scheme 3) analogously to the synthesis of the derivative of first generation 8 shown in Scheme 2. As in the first case, the tert-butyl-protected γ-aminotriscarboxylic acid 3 is reacted with the appropriate nitrotriscarboxylic acid 9, whose tert-butyl ester is the synthesis precursor of 3 (15, 16), using DCC in the presence of 1HO-BT and subsequent reduction with hydrogen to the dendron 10 of second generation [9-cascade:aminomethane[3]:(2-aza-3-oxopentylidyne):tert-butyl propanoate]. […] The analogous removal of the protective groups leads to the dendrimer fullerene 1 of the second generation.

≈ marks a conversion by molar mass, not a printed value.

In the case of “C60[C(COOH)2]3 [C3-symmetrical derivative]”, in the series on apoptotic neural death, the “reduction of apoptotic neural death” value is “reduced apoptotic neural death”.
With `O=CCCC(CCC(=O)O)(CCC(=O)O)NC(=O)CCC(CCC(=O)NC(CCC(=O)O)(CCC(=O)O)CCC(=O)O)(CCC(=O)NC(CCC(=O)O)(CCC(=O)O)CCC(=O)O)NC(=O)CCCOC(=O)C1(C(=O)OCCCC(=O)NC(CCC(=O)NC(CCC(=O)O)(CCC(=O)O)CCC(=O)O)(CCC(=O)NC(CCC(=O)O)(CCC(=O)O)CCC(=O)O)CCC(=O)NC(CCC(=O)O)(CCC(=O)O)CCC(=O)O)C2c3cc4c5c6c(cc7ccc8cc9c%10c%11c(cc(c%12c3c5c(c%12%11)c3c6c7c8c%103)C21)C9)C4` (stereo not shown) [compound 1, 18-cascade:methano-C60-fullerene[2]:(2-aza-7-oxa-3,8-dioxooctylidyne):(2-aza-3-oxopentylidyne):propanoic acid], the “solubility (in words)” value in “physchem” is “very readily soluble”. In addition, the solubility in “physchem” (25 °C, pH 7, aqueous buffer) is roughly 34 mg/mL (≈ 13.7 mM); in “physchem” (pH 10, aqueous buffer), roughly 250 mg/mL (≈ 100 mM).
